Read-outs that look alike come from different tables or passages of the source.
Tests used:
CCK receptor (pancreas) = target: T1, CCK receptor (pancreas) (Canis lupus familiaris, UniProt Q5D0K2); assay: CCK receptor-binding, pancreas (inhibition of 125I-CCK-8 binding); set-up: species or system male mongrel adult dog
T1 construct: the suspension was used as a receptor source; from tissue; host or cells: dog pancreas membranes
T1 sequence (Q5D0K2 1-428): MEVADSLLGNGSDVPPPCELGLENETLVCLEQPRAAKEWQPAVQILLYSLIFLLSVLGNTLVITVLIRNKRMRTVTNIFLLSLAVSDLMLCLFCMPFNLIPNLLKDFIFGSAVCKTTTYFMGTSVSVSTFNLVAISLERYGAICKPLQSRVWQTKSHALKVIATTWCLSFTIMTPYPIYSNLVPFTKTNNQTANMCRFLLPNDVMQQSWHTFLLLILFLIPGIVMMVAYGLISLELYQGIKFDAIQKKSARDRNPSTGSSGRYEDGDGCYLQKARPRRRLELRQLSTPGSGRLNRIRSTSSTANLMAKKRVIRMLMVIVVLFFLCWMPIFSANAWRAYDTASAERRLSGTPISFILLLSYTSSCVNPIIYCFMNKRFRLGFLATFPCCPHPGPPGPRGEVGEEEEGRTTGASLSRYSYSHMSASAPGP
Experimental: The entire pancreas of a male mongrel adult dog was extracted and the fat tissues thereof were removed. The residual portion was homogenized in 50 mM Tris hydrochloride (pH 7.5) (Blinkman.cndot.Polytron PT20). After the filtration with nylon cloth (120 mesh) and subsequent centrifugation (50,000×g, 12 minutes), the obtained sediment was homogenized in a Tris buffer solution in the same manner as mentioned above and the homogenate was centrifuged. The obtained sediment was suspended in a buffer solution for binding assay (5 mM magnesium chloride, 5 mM dithiothreitol, 2 mg/ml bovine serum albumin, 0.1 mg/ml bacitracin, and 50 mM Tris hydrochloride, pH 7.2) containing 0.14 mg/ml trypsin-inhibitor (soy bean), and the suspension was used as a receptor source.

CCK receptor (brain) = target: T2, CCK receptor (brain); assay: CCK receptor-binding, brain (inhibition of 125I-CCK-8 binding)
T2 construct: brain; from tissue
T2 sequence (P32239 whole entry): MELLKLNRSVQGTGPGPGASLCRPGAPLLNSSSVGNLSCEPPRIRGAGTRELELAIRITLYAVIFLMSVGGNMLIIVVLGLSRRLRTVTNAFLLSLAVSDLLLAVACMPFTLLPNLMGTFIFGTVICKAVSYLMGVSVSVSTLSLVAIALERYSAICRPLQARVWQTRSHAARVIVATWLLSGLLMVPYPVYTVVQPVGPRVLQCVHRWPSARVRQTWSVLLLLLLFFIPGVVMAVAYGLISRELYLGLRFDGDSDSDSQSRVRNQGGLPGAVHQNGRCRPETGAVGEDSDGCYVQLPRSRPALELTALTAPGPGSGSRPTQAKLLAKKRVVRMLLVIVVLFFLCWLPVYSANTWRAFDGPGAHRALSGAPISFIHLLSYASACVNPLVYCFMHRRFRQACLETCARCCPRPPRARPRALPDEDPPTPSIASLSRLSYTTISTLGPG

[1] = dog pancreas membranes, 125I-CCK-8, 20° C., 30 minutes, pH 7.2, read-out: CCK binding, IC50, pancreas

| Compound | IC50 (CCK receptor (pancreas); [1]) [nM] | IC50 (CCK receptor (pancreas)) [nM] | IC50 (CCK receptor (brain)) [nM] |
| --- | --- | --- | --- |
| CCK-4 [reference compound] | 800 |  |  |
| CCc1cc2c(s1)-n1c(C)nnc1C(NC(=O)Nc1cccc(C)c1)N=C2c1ccccc1Cl (stereo not drawn) [Compound B, 4-(2-chlorophenyl)-2-ethyl-9-methyl-6-(3-(3-methylphenyl)ureido)-6H-thieno[3,2-f][1,2,4]-triazolo[4,3-a][1,4]diazepine] |  | 1.2 | 10 |
| CCK-8: CCK-8 which consists of 8 amino acids at the C terminus (of cholecystokinin); control compound [reference compound] | 0.4 |  |  |
| CCc1cc2c(s1)N(C)C(=O)C(NC(=O)Nc1cccc(C)c1)N=C2c1ccccc1Cl (stereo not drawn) [Compound A, 4-(2-chlorophenyl)-2-ethyl-8-methyl-6-(3-(3-methylphenyl)ureido)-8H-6,7-dihydro-thieno[3,2-f]-[1,4]diazepin-7-one] |  | 11 | 31 |

— US5439905A, “Thienodiazepine compounds and their use” (Yoshitomi Pharmaceutical Industries, Ltd., priority 1993, dated 1995)
